{
  "source": "PubChem BioAssay AID623879",
  "about": "(Vanderbilt Specialized Chemistry Center, 2012)",
  "target": "Metabotropic glutamate receptor 3 (Rattus norvegicus) (UniProt P31422)",
  "sequence (P31422 whole entry, looked up)": "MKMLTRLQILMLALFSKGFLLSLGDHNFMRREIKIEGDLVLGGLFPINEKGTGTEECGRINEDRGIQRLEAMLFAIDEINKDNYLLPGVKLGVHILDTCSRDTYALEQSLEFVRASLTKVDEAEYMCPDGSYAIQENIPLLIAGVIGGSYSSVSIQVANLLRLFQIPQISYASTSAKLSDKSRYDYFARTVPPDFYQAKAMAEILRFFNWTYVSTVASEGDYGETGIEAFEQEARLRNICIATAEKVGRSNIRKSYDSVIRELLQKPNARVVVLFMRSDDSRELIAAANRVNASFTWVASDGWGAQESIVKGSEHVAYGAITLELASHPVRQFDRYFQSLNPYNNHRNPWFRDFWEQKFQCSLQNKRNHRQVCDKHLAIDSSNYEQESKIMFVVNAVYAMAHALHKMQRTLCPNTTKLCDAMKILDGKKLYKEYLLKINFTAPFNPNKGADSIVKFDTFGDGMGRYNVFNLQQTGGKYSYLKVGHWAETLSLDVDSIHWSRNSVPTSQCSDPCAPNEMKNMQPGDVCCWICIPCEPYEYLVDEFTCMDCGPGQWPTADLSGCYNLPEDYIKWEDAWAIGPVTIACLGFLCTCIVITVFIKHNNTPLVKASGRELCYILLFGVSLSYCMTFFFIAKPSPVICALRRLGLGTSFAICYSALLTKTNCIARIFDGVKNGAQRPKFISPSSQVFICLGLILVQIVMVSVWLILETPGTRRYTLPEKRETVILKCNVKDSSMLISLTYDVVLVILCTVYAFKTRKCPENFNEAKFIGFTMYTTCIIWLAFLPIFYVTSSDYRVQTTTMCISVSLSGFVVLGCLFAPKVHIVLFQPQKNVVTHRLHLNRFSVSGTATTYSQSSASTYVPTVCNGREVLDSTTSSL",
  "assay": "glutamate response shift at mGlu3 – cell-based, rat, GIRK thallium flux, selectivity assay for mGlu4 PAM optimization project, SAR follow-up (AID 623879)",
  "conditions": "rat mGlu3 cells, glutamate CRC shift, at 10 µM",
  "note": "Calls of active or inactive are those of the source.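 The calls were made as follows: active = fold shift at least 2 as potentiator or at most 0.5 as antagonist, actives on both sides; inactive = fold shift between 0.5 and 2.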",
  "data": [
    {"compound": "O=C(Nc1cccc(Cl)c1)c1ccccn1", "values": [
      {"measurement": "fold shift", "value": "0.897 (inactive)"},
      {"measurement": "max response", "setting": "measured here: glutamate max response with compound, stronger effect = higher value", "value": 98.7, "unit": "%"}
    ]}
  ]
}
